{"source": "paper PMC3423084", "about": "(Circulation, 2012)", "key": {"[1]": {"conditions": "human, ref Kosoglou, 2012 #2596, cited from earlier work"}, "PAR1": {"target": "T1, PAR1 (Cavia porcellus, UniProt A0A286XH07)", "T1 sequence (A0A286XH07 24-426)": "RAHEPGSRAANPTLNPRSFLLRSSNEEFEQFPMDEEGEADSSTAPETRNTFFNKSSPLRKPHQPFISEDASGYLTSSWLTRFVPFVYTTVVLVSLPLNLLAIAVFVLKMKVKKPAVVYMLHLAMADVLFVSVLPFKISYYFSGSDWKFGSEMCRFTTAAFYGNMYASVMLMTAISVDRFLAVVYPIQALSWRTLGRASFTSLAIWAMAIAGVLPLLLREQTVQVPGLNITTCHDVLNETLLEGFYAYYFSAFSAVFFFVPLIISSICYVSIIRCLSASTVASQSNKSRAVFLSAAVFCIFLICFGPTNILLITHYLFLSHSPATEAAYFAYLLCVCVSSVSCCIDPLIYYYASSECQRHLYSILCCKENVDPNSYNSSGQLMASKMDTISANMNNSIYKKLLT", "assay": "Activation of guinea pig platelets", "format": "cell-based"}, "guinea pigs": {"system": "guinea pigs", "assay": "Guinea pig carotid artery FeCl3 injury arterial thrombosis model", "format": "in vivo", "conditions": "clopidogrel 1 mg/kg PO 4 h prior alone, 90 min period, n=5"}}, "data": [{"smiles": "CCOC(=O)N[C@@H]1CC[C@@H]2[C@@H](C1)C[C@H]1C(=O)O[C@H](C)[C@H]1[C@H]2/C=C/c1ccc(-c2cccc(F)c2)cn1", "note": "[vorapaxar]", "values": [{"measurement": "Pharmacodynamic (PD) half life / duration of inhibition of platelet function", "setting": "[1]; single loading dose", "result": "up to 3 weeks"}, {"measurement": "Plasma half-life", "setting": "[1]", "result": "120 to 264", "unit": "h"}]}, {"smiles": "CC(C)C[C@H](NC(=O)[C@H](CC(C)C)NC(=O)[C@H](Cc1ccccc1)NC(=O)[C@@H](N)CO)C(=O)N[C@@H](CCCN=C(N)N)C(=O)N[C@@H](CC(N)=O)C(=O)O", "note": "[SFLLRN]", "values": [{"measurement": "EC50", "setting": "PAR1", "result": 2500, "unit": "nM"}]}, {"smiles": "COC(=O)[C@H](c1ccccc1Cl)N1CCc2sccc2C1", "note": "[clopidogrel]", "values": [{"measurement": "Protection against arterial occlusion when used alone", "setting": "guinea pigs", "result": "non-significant protection"}]}]}
